Assay results taken from patent US12023320B2, “Therapeutic agent for fatty liver disease” (EA PHARMA CO., LTD., priority 2020, dated 2024).

System: high-fat and high-fructose-induced NASH model (FFD model)
Assay: high-fat and high-fructose-induced NASH model (fast-food diet model: FFD model), 18 weeks gavage
Format: in vivo, C57BL/6J Jms Slc male mice
Details: for histopathological findings: Fat formation: large fat droplets, number of mice graded ± (Slight) / histopathological findings: Fat formation: large fat droplets, number of mice graded + (Moderate): 8 mice evaluated; for histopathological findings: Fat formation: large fat droplets, number of mice graded ± (Slight) / histopathological findings: Fibrosis, number of mice graded ± (Slight): Vehicle 3; for histopathological findings: Fat formation: large fat droplets, number of mice graded + (Moderate) / histopathological findings: Fibrosis, number of mice graded + (Moderate): Vehicle 5; for histopathological findings: Fibrosis, number of mice graded ± (Slight) / histopathological findings: Fibrosis, number of mice graded + (Moderate): individuals with liver nodules excluded; for number of CD68-positive hCLS in the liver (inhibitory effect on the increase vs Vehicle group): after 18 weeks of administration (FIG. 5); for liver TG (inhibitory effect on the increase vs Vehicle group): after 18 weeks of administration (FIG. 3)
Method: In the present Examples, using a high-fat and high-fructose-induced NASH model (fast-food diet model: FFD model), the effect of a test drug was evaluated. For the FFD model, refer to BMC Gastroenterol. 2020; 20: 210 and Am J Physiol Gastrointest Liver Physiol. 2013 Oct. 1; 305(7): G483-95. The test drug was prepared by adding hydrochloride of the compound represented by the formula (1) (hereinafter referred to as “compound 1”) to 0.5% MC and sonicating the mixture. 6-week-old C57BL/6J Jms Slc male mice were fed with standard diet (D09100304, Research Diets, Inc.) or FFD diet for pathogenesis (D09100310N, Research Diets, Inc.) for 20 weeks. Then, the mice were grouped as shown in Table 1 based on three indices, i.e., plasma alanine aminotransferase (ALT) levels, body weight, and fasting blood glucose levels. According to the dosage and usage shown in Table 1, the administration substance was gavaged to each group for 18 weeks. [table] ALT was measured by collecting blood from the tail vein after 12 weeks of administration. An autopsy was performed after 18 weeks of administration, and plasma aspartate aminotransferase (AST), plasma total cholesterol (Tcho), and liver triglyceride (TG) were measured. In addition, the Sirius red-positive area and the number of hepatic crown-like structures (hCLS) were measured by liver pathological analysis. Statistical analysis was performed using GraphPad Prism 6 (GraphPad Software, Inc.). For the Normal group and the Vehicle group, t-test or Mann-Whitney's test was performed. For the Vehicle group and the compound 1 group, Dunnett' multiple comparison test or Dunn's multiple comparison test was performed. Any of the test methods was appropriately selected according to the distribution of each parameter. The significance level of all the tests was set to p=0.05. A liver sample was homogenized in a phosphate buffer and extracted with methanol and chloroform overnight. Then, chloroform and distilled water were further added thereto. The mixture was separated by centrifugation, the chloroform layer was collected, and the solvent was dried. The precipitate was dissolved in isopropanol/TritonX-100, and this was used as a measurement sample, the measurement was carried out using Triglyceride E-Test Wako (FUJIFILM Wako Pure Chemical Corporation). The excised liver was fixed in a 10% neutral buffered formalin solution, and embedded in paraffin and Sirius red-stained specimens were prepared according to standard methods. The Sirius red-stained specimen was used to calculate the positive area. The positive area of the Normal group was averaged and used as the background. A CD68 immunostaining specimen (rabbit anti-CD68 polyclonal antibody [ab125212], Abcam) was prepared, and the number of hCLS was counted.

[1] = compound 1 (60) group, 60 mg/kg/day BID

CC(C)(Cc1ccc(C(=O)Oc2ccc(C(=N)N)cc2F)s1)C(=O)O [compound 1]
histopathological findings: Fat formation: large fat droplets, number of mice graded ± (Slight) (10 mg/kg QD): 4 | histopathological findings: Fat formation: large fat droplets, number of mice graded + (Moderate) (10 mg/kg QD): 4 | histopathological findings: Fibrosis, number of mice graded ± (Slight) (10 mg/kg QD): 6 | histopathological findings: Fibrosis, number of mice graded + (Moderate) (10 mg/kg QD): 2 | histopathological findings: Fat formation: large fat droplets, number of mice graded ± (Slight) (30 mg/kg QD): 2 | histopathological findings: Fat formation: large fat droplets, number of mice graded + (Moderate) (30 mg/kg QD): 6 | histopathological findings: Fibrosis, number of mice graded ± (Slight) (30 mg/kg QD): 6 | histopathological findings: Fibrosis, number of mice graded + (Moderate) (30 mg/kg QD): 1 | histopathological findings: Fat formation: large fat droplets, number of mice graded ± (Slight) (60 mg/kg/day BID): 7 | histopathological findings: Fat formation: large fat droplets, number of mice graded + (Moderate) (60 mg/kg/day BID): 1 | histopathological findings: Fibrosis, number of mice graded ± (Slight) (60 mg/kg/day BID): 6 | histopathological findings: Fibrosis, number of mice graded + (Moderate) (60 mg/kg/day BID): 2 | number of CD68-positive hCLS in the liver (inhibitory effect on the increase vs Vehicle group) (compound 1 (10) group, 10 mg/kg QD): statistically significant inhibitory effect | liver TG (inhibitory effect on the increase vs Vehicle group) (compound 1 (30) group, 30 mg/kg QD): statistically significant inhibitory effect | plasma ALT (inhibitory effect on the increase vs Vehicle group) (compound 1 (60) group, 60 mg/kg/day BID, after 12 weeks and 18 weeks of administration (FIG. 1A, 1B)): statistically significant inhibitory effect | plasma AST (inhibitory effect on the increase vs Vehicle group) (compound 1 (60) group, 60 mg/kg/day BID, after 18 weeks of administration (FIG. 1C)): statistically significant inhibitory effect | plasma Tcho (inhibitory effect on the increase vs Vehicle group) (compound 1 (60) group, 60 mg/kg/day BID, after 18 weeks of administration (FIG. 2)): statistically significant inhibitory effect | liver TG (inhibitory effect on the increase vs Vehicle group) [1]: statistically significant inhibitory effect | Sirius red-positive area in the liver (inhibitory effect on the increase vs Vehicle group) (compound 1 (60) group, 60 mg/kg/day BID, after 18 weeks of administration (FIG. 4)): statistically significant inhibitory effect | number of CD68-positive hCLS in the liver (inhibitory effect on the increase vs Vehicle group) [1]: statistically significant inhibitory effect
